# Results reported in patent US9102591B2, “Benzamides” (H. Lundbeck A/S, priority 2012, dated 2015).
# Molecular target: P2X7 receptor (Homo sapiens (Human), UniProt Q99572)
# Assay: P2X7 FLIPR assay (BzATP-stimulated calcium fluorescence, antagonist IC50)
# Type: cell-based
# Protocol: This example illustrates representative assays for use in evaluating the test compounds for antagonist activity. Compounds of the present invention were tested in vitro for their ability to act as antagonists to the P2X7receptor. […]
# Cells were plated to cell density of approximately 15,000 cells/well in 384-well assay plates (50 μl/well) with 1.5% low serum media (DMEM, 1.5% FBS, 1% L-glut (2 mM), 10 mM HUES, 1% P/S). Cells were plated 24 hours prior to assay. Cells expressing human, rat or mouse P2X7 receptor were assayed in the following manner.
# Fluo-4 NW dye mix (Molecular Probes, Inc., Eugene, Oreg., USA) was prepared in buffer (see manufacturer's instructions). Cell plates were removed from the 37° C. incubator, the media discarded and then 30 μL of dye was added to each well. Plates were placed in the 37° C., non-CO2 incubator for 30 minutes and then room temperature for 30 minutes.
# Compound mixtures (A) were added to assay plates containing cells and placed at room temperature for 30 minutes, then BzATP (B) was added. Fluorescence was read using the Tetra FLIPR® (Molecular Devices, Inc., Sunnyvale, Calif., USA) and IC50 values were calculated by standard methods to determine antagonist activity.
# Chain of P2X7 receptor (Q99572 whole entry): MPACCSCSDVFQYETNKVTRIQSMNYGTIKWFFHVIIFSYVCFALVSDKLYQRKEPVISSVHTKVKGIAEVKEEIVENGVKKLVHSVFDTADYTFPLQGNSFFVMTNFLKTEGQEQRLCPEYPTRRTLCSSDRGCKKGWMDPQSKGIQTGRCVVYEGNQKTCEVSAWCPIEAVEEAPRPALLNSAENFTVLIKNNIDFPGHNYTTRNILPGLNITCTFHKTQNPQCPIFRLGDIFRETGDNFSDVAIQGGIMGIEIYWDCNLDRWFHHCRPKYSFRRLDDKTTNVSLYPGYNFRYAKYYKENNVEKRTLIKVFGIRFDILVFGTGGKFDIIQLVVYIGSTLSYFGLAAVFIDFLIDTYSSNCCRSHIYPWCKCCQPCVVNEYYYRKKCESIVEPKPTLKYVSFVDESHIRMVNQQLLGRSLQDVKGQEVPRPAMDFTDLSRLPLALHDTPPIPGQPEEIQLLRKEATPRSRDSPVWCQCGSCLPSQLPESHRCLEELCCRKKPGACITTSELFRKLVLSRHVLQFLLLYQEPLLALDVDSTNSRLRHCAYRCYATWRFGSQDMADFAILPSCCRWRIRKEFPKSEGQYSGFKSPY
row,Compound,IC50
1,"Cc1ncc(C(CNC(=O)c2ccccc2Cl)CC2(C(F)(F)F)CC2)cn1 (single isomer, unassigned; (-)) [(−)2-chloro-N-[2-(2-methylpyrimidin-5-yl)-3-[1-(trifluoromet] [(−)2-chloro-N-[2-(2-methylpyrimidin-5-yl)-3-[1-(trifluoromethyl)cyclopropyl]propyl]benzamide]",650 nM
2,"N#Cc1ccccc1C(=O)NCC1(c2ccc(C(F)(F)F)nc2)CCC(F)(F)CC1 [2-cyano-N-((4,4-difluoro-1-(6-(trifluoromethyl)pyridin-3-yl)cyclohexyl)methyl)benzamide]",150 nM
3,"O=C(NCC(CC1CC1)c1ccc(C(F)(F)F)nc1)c1cccc(C(F)(F)F)c1Cl (single isomer, unassigned; (+)) [(+)2-chloro-N-[3-cyclopropyl-2-[6-(trifluoromethyl)-3-pyridy] [(+)2-chloro-N-[3-cyclopropyl-2-[6-(trifluoromethyl)-3-pyridyl]propyl]-3-(trifluoromethyl)benzamide]",1100 nM
4,"O=C(NCC1(c2ccc(Cl)cc2)CCOCC1)c1cc(F)ccc1F [N-[4-(4-Chloro-phenyl)-tetrahydro-pyran-4-ylmethyl]-2,5-difluoro-benzamide]",3000 nM
5,"O=C(NCC1(c2cnc(C(F)(F)F)nc2)CCOCC1)c1cccc(Cl)c1Cl [2,3-dichloro-N-[[4-[2-(trifluoromethyl)pyrimidin-5-yl]tetrahydropyran-4-yl]methyl]benzamide]",250 nM
6,"O=C(NCC(c1cnc(C(F)(F)F)nc1)C1CCC(F)(F)CC1)c1c(F)cccc1Cl (single isomer, unassigned; (-)) [(−)2-chloro-N-[2-(4,4-difluorocyclohexyl)-2-[2-(trifluoromet] [(−)2-chloro-N-[2-(4,4-difluorocyclohexyl)-2-[2-(trifluoromethyl)pyrimidin-5-yl]ethyl]-6-fluoro-benzamide]",61 nM
7,"Cc1cn(C2(CNC(=O)c3cccc(Cl)c3Cl)CCC(F)(F)CC2)cn1 [2,3-dichloro-N-((4,4-difluoro-1-(4-methyl-1H-imidazol-1-yl)cyclohexyl)methyl)benzamide]",90 nM
8,"O=C(NCC1(c2ccc(C(F)(F)F)nc2)CCOCC1)c1cccc(Cl)c1Cl [2,3-dichloro-N-((4-(6-(trifluoromethyl)pyridin-3-yl)tetrahydro-2H-pyran-4-yl)methyl)benzamide]",52 nM
9,"O=C(NCC(c1cnc(C(F)(F)F)nc1)C1CCC(F)(F)CC1)c1c(F)cccc1Cl (single isomer, unassigned; (+)) [(+)2-chloro-N-[2-(4,4-difluorocyclohexyl)-2-[2-(trfluorometh] [(+)2-chloro-N-[2-(4,4-difluorocyclohexyl)-2-[2-(trfluoromethyl)pyrimidin-5-yl]ethyl]-6-fluoro-benzamide]",75 nM
10,"O=C(NCC(c1cnc(C(F)(F)F)nc1)C1CCOCC1)c1ccccc1Cl (single isomer, unassigned; (+)) [(+)2-chloro-N-[2-tetrahydropyran-4-yl-2-[2-(trifluoromethyl)] [(+)2-chloro-N-[2-tetrahydropyran-4-yl-2-[2-(trifluoromethyl)pyrimidin-5-yl]ethyl]benzamide]",51 nM
11,O=C(NCC1(c2cnc(C(F)(F)F)nc2)CCOCC1)c1c(F)cccc1Cl [2-chloro-6-fluoro-N-[[4-[2-(trifluoromethyl)pyrimidin-5-yl]tetrahydropyran-4-yl]methyl]benzamide],1600 nM

# Continued by falling IC50, values first:
row,IC50,Compound
1,50 nM,"O=C(NCC(CC1CC1)c1ccc(C(F)(F)F)nc1)c1c(F)cccc1Cl (single isomer, unassigned; (+)) [(+)2-chloro-N-[3-cyclopropyl-2-[6-(trifluoromethyl)-3-pyridy] [(+)2-chloro-N-[3-cyclopropyl-2-[6-(trifluoromethyl)-3-pyridyl]propyl]-6-fluoro-benzamide]"
2,38 nM,"O=C(NCC(CC1CC1)c1cnc(C(F)(F)F)nc1)c1ccccc1Cl (single isomer, unassigned; (+)) [(+)2-chloro-N-[3-cyclopropyl-2-[2-(trifluoromethyl)pyrimidin] [(+)2-chloro-N-[3-cyclopropyl-2-[2-(trifluoromethyl)pyrimidin-5-yl]propyl]benzamide]"
3,30 nM,O=C(NCC(c1ccc(Cl)cc1)C1CCOCC1)c1c(F)cccc1Cl (stereo not shown) [2-chloro-N-[2-(4-chlorophenyl)-2-tetrahydropyran-4-yl-ethyl]-6-fluoro-benzamide]
4,29 nM,"O=C(NCC(CC1(C(F)(F)F)CC1)c1cnc(C(F)(F)F)nc1)c1cccc(F)c1Cl (single isomer, unassigned; (-)) [(−)2-chloro-3-fluoro-N-[3-[1-(trifluoromethyl)cyclopropyl]-2] [(−)2-chloro-3-fluoro-N-[3-[1-(trifluoromethyl)cyclopropyl]-2-[2-(trifluoromethyl)pyrimidin-5-yl]propyl]benzamide]"
5,12 nM,"O=C(NCC(CC1(C(F)(F)F)CC1)c1ccc(C(F)(F)F)nc1)c1cccc(Cl)c1Cl (single isomer, unassigned; (+)) [(+)2,3-dichloro-N-[3-[1-(trifluoromethyl)cyclopropyl]-2-[6-(] [(+)2,3-dichloro-N-[3-[1-(trifluoromethyl)cyclopropyl]-2-[6-(trifluoromethyl)-3-pyridyl]propyl]benzamide]"
6,11 nM,"O=C(NCC(CC1CC1)c1ccc(C(F)(F)F)nc1)c1cccc(F)c1Cl (single isomer, unassigned; (+)) [(+)2-chloro-N-[3-cyclopropyl-2-[6-(trifluoromethyl)-3-pyridy] [(+)2-chloro-N-[3-cyclopropyl-2-[6-(trifluoromethyl)-3-pyridyl]propyl]-3-fluoro-benzamide]"
7,9.4 nM,"O=C(NCC(c1ccc(F)cc1)c1ccc(C(F)(F)F)nc1)c1cccc(Cl)c1Cl (single isomer, unassigned; (-)) [(−)2,3-dichloro-N-[2-(4-fluorophenyl)-2-[6-(trifluoromethyl)] [(−)2,3-dichloro-N-[2-(4-fluorophenyl)-2-[6-(trifluoromethyl)-3-pyridyl]ethyl]benzamide]"
8,8.5 nM,"O=C(NCC(c1ccc(F)cc1)c1ccc(C(F)(F)F)nc1)c1c(F)cccc1Cl (single isomer, unassigned; (-)) [(−)2-chloro-6-fluoro-N-[2-(4-fluorophenyl)-2-[6-(trifluorome] [(−)2-chloro-6-fluoro-N-[2-(4-fluorophenyl)-2-[6-(trifluoromethyl)-3-pyridyl]ethyl]benzamide]"
9,4.6 nM,"O=C(NCC(c1ccc(F)cc1)c1ccc(C(F)(F)F)nc1)c1cccc(F)c1Cl (single isomer, unassigned; (+)) [(+)2-chloro-3-fluoro-N-[2-(4-fluorophenyl)-2-[6-(trifluorome] [(+)2-chloro-3-fluoro-N-[2-(4-fluorophenyl)-2-[6-(trifluoromethyl)-3-pyridyl]ethyl]benzamide]"
10,4.1 nM,"O=C(NC[C@H](c1cnc(C(F)(F)F)nc1)C1CCOCC1)c1cccc(Cl)c1Cl (single isomer, unassigned) [(+)2,3-dichloro-N-[2-tetrahydropyran-4-yl-2-[2-trifluoromethyl)pyrimidin-5-yl]ethyl]benzamide]"
11,3.8 nM,"O=C(NCC(CC1CC1)c1cnc(C(F)(F)F)nc1)c1c(Cl)cccc1Cl (single isomer, unassigned; (+)) [(+)2,6-dichloro-N-[3-cyclopropyl-2-[2-(trifluoromethyl)pyrim] [(+)2,6-dichloro-N-[3-cyclopropyl-2-[2-(trifluoromethyl)pyrimidin-5-yl]propyl]benzamide]"
12,2.6 nM,"O=C(NCC(CC1CC1)c1ccc(C(F)(F)F)nc1)c1cccc(Cl)c1Cl (single isomer, unassigned; (+)) [(+)2,3-dichloro-N-[3-cyclopropyl-2-[6-(trifluoromethyl)-3-py] [(+)2,3-dichloro-N-[3-cyclopropyl-2-[6-(trifluoromethyl)-3-pyridyl]propyl]benzamide]"
13,1.8 nM,"O=C(NCC(c1ccc(F)cc1)c1cnc(C(F)(F)F)nc1)c1cccc(F)c1Cl (single isomer, unassigned; (-)) [(−)2-chloro-3-fluoro-N-[2-(4-fluorophenyl)-2-[2-(trifluorome] [(−)2-chloro-3-fluoro-N-[2-(4-fluorophenyl)-2-[2-(trifluoromethyl)pyrimidin-5-yl]ethyl]benzamide]"
14,1.4 nM,"COc1cccc(C(=O)NCC(CC2CC2)c2cnc(C(F)(F)F)nc2)c1C (single isomer, unassigned; (-)) [(−)N-[3-cyclopropyl-2-[2-(trifluoromethyl)pyrimidin-5-yl]pro] [(−)N-[3-cyclopropyl-2-[2-(trifluoromethyl)pyrimidin-5-yl]propyl]-3-methoxy-2-methyl-benzamide]"
15,1.4 nM,"O=C(NCC1(c2ccc(C(F)(F)F)nc2)CCC(F)(F)CC1)c1cccc(F)c1Cl [2-chloro-N-((4,4-difluoro-1-(6-(trifluoromethyl)pyridin-3-yl)cyclohexyl)methyl)-3-fluorobenzamide]"
16,0.96 nM,"COc1ccc(C2(CNC(=O)c3cccc(Cl)c3Cl)CCC(F)(F)CC2)cn1 [2,3-dichloro-N-((4,4-difluoro-1-(6-methoxypyridin-3-yl)cyclohexyl)methyl)benzamide]"
17,0.88 nM,"O=C(NCC(CC1CC1)c1cnc(C(F)(F)F)nc1)c1cccc(Cl)c1Cl (stereo not shown) [2,3-dichloro-N-[3-cyclopropyl-2-[2-(trifluoromethyl)pyrimidi] [2,3-dichloro-N-[3-cyclopropyl-2-[2-(trifluoromethyl)pyrimidin-5-yl]propyl]benzamide]"
